The values below come from publication PMC11239955, “Phase 1 pharmacokinetic and safety study of soticlestat in participants with mild or moderate hepatic impairment or normal hepatic function” (Pharmacology Research & Perspectives, 2024).

Structures are written as SMILES. Where two headings read alike, the source gives them in different places.

Data set [1] deals with cholesterol 24‐hydroxylase (CH24H). Particulars: no method or reference given; read-out: CH24H inhibition IC50; cited from earlier work.
For data set [2] the following is noted: cited from earlier work.
Data set [3] can be described thus: clinical. The format is in vitro ADME. Particulars: human, plasma, Plasma protein binding, mean. On the procedure:
Medical history and demographic data were recorded at screening. Twelve‐lead ECG, pulse rate, and BP were taken 2, 24, and 144 h after dosing or at early termination, and respiratory rate and temperature were taken 24 and 144 h after dosing or at early termination. Hematology, coagulation, serum chemistry, and urine analysis were conducted 48 and 144 h after dosing or at early termination. […] Blood samples for plasma protein binding were taken predose and 0.5 and 10 h after dose administration. TEAE monitoring occurred throughout the study and at follow‐up. The study's primary endpoints were the following pharmacokinetic parameters for soticlestat: C max; area under the total plasma concentration‐time curve from time 0 to infinity (AUC∞); and AUC from time 0 to time of the last quantifiable total plasma concentration (AUClast). The incidences of TEAEs and clinically significant abnormal values for laboratory evaluations, vital signs, ECG parameters, and Columbia‐Suicide Severity Rating Scale were secondary objectives. […] Total soticlestat, M‐I, and M3 concentrations and unbound soticlestat concentrations were determined using liquid chromatography–tandem mass spectrometry by CMIC, Inc. (Hoffman Estates, IL, USA). Unbound plasma soticlestat concentrations were measured using ultrafiltration (by CMIC, Inc.). Pharmacokinetic parameters were calculated using Phoenix® WinNonlin® version 8.3.4.

The subject of the next data set is plasma protein. Details: method as in PMID 37771051. The conditions noted are these: human, cited from earlier work.
On the set-up of data set [4]: method as in PMID 33837574. The conditions noted are these: healthy volunteers, doses 15 to 1350 mg; cited from earlier work.
Data set [5] can be described thus: clinical. Particulars: human, in vivo. On the procedure:
This was a phase 1, open‐label study of a single dose of oral soticlestat 300 mg with three treatment arms (NCT05098054)[25]: moderate hepatic impairment (Child‐Pugh B; score ≥7 and ≤9; anticipated enrollment n = 8); mild hepatic impairment (Child‐Pugh A; score ≥5 and ≤6; n = 8); and normal hepatic function (n = 12–24). Screening occurred at an outpatient visit up to 28 days before dosing. Participants were admitted to the clinic the day before dosing and remained until day 7. Follow‐up phone contact occurred 14 ± 2 days after dosing.
The moderate hepatic impairment arm was conducted first, followed by the matched normal hepatic function arm. After enrollment of the mild hepatic impairment arm, up to 12 additional participants could be enrolled for the matched normal hepatic function group to ensure a minimum of 12 participants with normal hepatic function and matching the mean of the mild hepatic impairment arm by age, sex, and BMI. Soticlestat was taken as three 100 mg immediate‐release tablets on day 1 with approximately 240 mL water under fasting conditions (≥10 h before dosing and 4 h post‐dose).
(§1) Medical history and demographic data were recorded at screening. Twelve‐lead ECG, pulse rate, and BP were taken 2, 24, and 144 h after dosing or at early termination, and respiratory rate and temperature were taken 24 and 144 h after dosing or at early termination. Hematology, coagulation, serum chemistry, and urine analysis were conducted 48 and 144 h after dosing or at early termination. Blood samples for pharmacokinetic assessments of soticlestat and its metabolites M‐I and M3 were taken predose and 0.133, 0.25, 0.5, 0.75, 1, 1.5, 2, 4, 6, 8, 10, 14, 24, 36, 48, 72, 96, 120, and 144 h after dose administration or at early termination. Blood samples for plasma protein binding were taken predose and 0.5 and 10 h after dose administration. TEAE monitoring occurred throughout the study and at follow‐up.
The study's primary endpoints were the following pharmacokinetic parameters for soticlestat: C max; area under the total plasma concentration‐time curve from time 0 to infinity (AUC∞); and AUC from time 0 to time of the last quantifiable total plasma concentration (AUClast). The incidences of TEAEs and clinically significant abnormal values for laboratory evaluations, vital signs, ECG parameters, and Columbia‐Suicide Severity Rating Scale were secondary objectives. Exploratory endpoints were plasma pharmacokinetic parameters of soticlestat metabolites M‐I and M3 (C max, AUC∞, AUClast, metabolite‐to‐parent ratio [MPR] C max, MPR AUClast, and MPR AUC∞); additional plasma pharmacokinetic parameters of soticlestat and the metabolites M‐I and M3 (time of first occurrence of C max [t max] and terminal disposition phase half‐life [t ½z]); additional plasma pharmacokinetic parameters of soticlestat (apparent clearance after extravascular administration, calculated using the observed value of the last quantifiable total plasma concentration [CL/F]; apparent volume of distribution during the terminal disposition phase after extravascular administration, calculated using the observed value of the last quantifiable total plasma concentration [Vz/F]); and plasma protein binding of soticlestat: fraction of unbound soticlestat.
Total soticlestat, M‐I, and M3 concentrations and unbound soticlestat concentrations were determined using liquid chromatography–tandem mass spectrometry by CMIC, Inc. (Hoffman Estates, IL, USA). Unbound plasma soticlestat concentrations were measured using ultrafiltration (by CMIC, Inc.). Pharmacokinetic parameters were calculated using Phoenix® WinNonlin® version 8.3.4.
Descriptive statistics were derived for the concentration data: number of observations (n), arithmetic mean (mean), standard deviation (SD), arithmetic percent coefficient of variation (CV%), standard error of the mean, minimum, median, and maximum. […]

Data set [6] can be described thus: Safety: treatment-emergent adverse events after single oral soticlestat 300 mg. The format is in vivo, human. On the procedure:
as §1
The study's primary endpoints were the following pharmacokinetic parameters for soticlestat: C max; area under the total plasma concentration‐time curve from time 0 to infinity (AUC∞); and AUC from time 0 to time of the last quantifiable total plasma concentration (AUClast). The incidences of TEAEs and clinically significant abnormal values for laboratory evaluations, vital signs, ECG parameters, and Columbia‐Suicide Severity Rating Scale were secondary objectives. […]

[7] abbreviates: 300 mg dose of [14C]soticlestat.

Consider `O=C(c1cccnc1-c1ccncc1)N1CCC(O)(Cc2ccccc2)CC1` [soticlestat], for which, in data set [1], the IC50 (usually the concentration that gives 50% inhibition) is 4.5 nM. Besides, in data set [2] (setting [7]), the “Administered dose recovered in urine as this substance” value is given as 0.1%, the “Recovery of total radioactivity in feces” value is recorded as 2.7% and the “Recovery of total radioactivity in urine” value is recorded as 94.8%. In data set [2], the Excreted in urine is less than 1%; the “Share of soticlestat metabolism accounted for by UGT1A9 and UGT2B4” value was “approximately 90%”. In addition, the Absolute bioavailability in data set [2] (healthy volunteers) is listed as 12.6%. Moreover, the fraction unbound (in general, free concentration divided by total concentration) in the data set “clinical [3]” was 0.175. Also, the “In vitro plasma protein binding” value in the data set with plasma protein (0.1 μg/mL) is given as 94.0%. Also, in the data set on plasma protein (1 μg/mL), the “In vitro plasma protein binding” value was 93.4%. In the data set with plasma protein (10 μg/mL), the “In vitro plasma protein binding” value is reported as 70.6%. In the data set on plasma protein, the “Main binding protein in plasma” value is on record as “mainly bound to human α‐1‐acid glycoprotein”. Also, in data set [4], the “Mean plasma maximum concentration (Cmax)” value was 43.5 to 7950 ng/mL and the Terminal elimination half-life is 49.2 to 430 min. Moreover, in the data set “clinical [5]”, the “Increase in total plasma exposure vs healthy matched participants (preliminary analysis)” value was “approximately 3 fold”, the “Total plasma AUClast higher vs healthy participants (preliminary analysis)” value is given as “approximately 3 fold” and the “Total plasma AUC∞ higher vs healthy participants (preliminary analysis)” value was “approximately 3 fold”. The Vd/F (as a rule, the volume of distribution divided by bioavailability) in “clinical [5]” (po, 300 mg, Mean ± SD Vz/F, total plasma) came out at 890 ± 1900 L. Further, the half-life (usually the time needed for the level to fall by half in the phase considered) in the data set “clinical [5]” (po, 300 mg, Mean ± SD t½z, total plasma) was 219 ± 58.5 min. Further, the time of peak concentration (Tmax) (commonly the time at which the peak concentration occurs) in “clinical [5]” (po, 300 mg, Median (range) tmax, total plasma) stood at 30 min. Also, the “TEAEs based on serum chemistry, hematology, coagulation, urinalysis, vital signs, ECG, or Columbia-Suicide Severity Rating Scale” value in data set [6] (all study arms) is “no TEAEs”. In addition, the “Number of TEAEs considered study drug related” value in data set [6] (in vivo) is on record as “two”.
